# Source: the supplement of paper PMC13380429
# Columns and labels:
# Settings in all cases: 72 h
# [1] = tested on: Caco-2; test: cell viability relative to DMSO; higher = less toxic
# [2] = tested on: Calu-3; test: as above
# [3] = tested on: HepG2; test: as above
# [4] = tested on: U2OS; test: as above
# [5] = tested on: Vero E6; test: as above
# [6] = tested on: Caco-2; test: relative viability EC50 (midpoint between 100% and the lowest measured viability); higher = less toxic
# [7] = tested on: Calu-3; test: as above
# [8] = tested on: HepG2; test: as above
# [9] = tested on: U2OS; test: as above
# [10] = tested on: Vero E6; test: as above
# [11] = tested on: Caco-2; test: drug sensitivity score (DSS) for viability; higher = more toxic; extreme values may be limits of the assay
# [12] = tested on: Calu-3; test: as above
# [13] = tested on: HepG2; test: as above
# [14] = tested on: U2OS; test: as above
# [15] = tested on: Vero E6; test: as above
SMILES,cell viability ([1]; 1 nM) [%],cell viability ([1]; 10 nM) [%],cell viability ([1]; 100 nM) [%],cell viability ([1]; 1000 nM) [%],cell viability ([1]; 10000 nM) [%],cell viability ([2]; 1 nM) [%],cell viability ([2]; 10 nM) [%],cell viability ([2]; 100 nM) [%],cell viability ([2]; 1000 nM) [%],cell viability ([2]; 10000 nM) [%],cell viability ([3]; 1 nM) [%],cell viability ([3]; 10 nM) [%],cell viability ([3]; 100 nM) [%],cell viability ([3]; 1000 nM) [%],cell viability ([3]; 10000 nM) [%],cell viability ([4]; 1 nM) [%],cell viability ([4]; 10 nM) [%],cell viability ([4]; 100 nM) [%],cell viability ([4]; 1000 nM) [%],cell viability ([4]; 10000 nM) [%],cell viability ([5]; 1 nM) [%],cell viability ([5]; 10 nM) [%],cell viability ([5]; 100 nM) [%],cell viability ([5]; 1000 nM) [%],cell viability ([5]; 10000 nM) [%],relative viability EC50 [6] [µM],relative viability EC50 [7] [µM],relative viability EC50 [8] [µM],relative viability EC50 [9] [µM],relative viability EC50 [10] [µM],drug sensitivity score [11],drug sensitivity score [12],drug sensitivity score [13],drug sensitivity score [14],drug sensitivity score [15]
C[C@H](Nc1cc(NS(=O)(=O)N2CCC2)nc(SCc2cccc(F)c2F)n1)[C@@H](O)CO [SRT3190],103,91,93.3,96,101,104,97.1,99.9,89.9,98.5,97.6,90.1,91,111,96,98.4,95.2,100,93.2,94.5,102,100,95.2,98.5,96.4,> 10,> 10,> 10,> 10,> 10,0,0,0,0,0
CC(=O)N1CCC(C(=O)N(CCCN2CCC(Cc3ccc(C(N)=O)cc3)CC2)c2ccc(C)c(Cl)c2)CC1 [TAK-220],85.2,95.1,93.5,102,98.3,100,101,98.3,101,97.9,99.9,87.2,94.1,94.5,98.6,97.3,99.3,99.4,99.9,95.3,113,101,106,92.4,106,> 10,> 10,> 10,> 10,> 10,0,0,0,0,0
COc1ccsc1CNCC[C@@]1(c2ccccn2)CCOC2(CCCC2)C1 [TRV130],105,104,101,93,97.6,103,96.9,101,112,104,105,95.6,91.9,102,94.9,103,102,102,96.9,100,96.9,100,95.7,94.5,96.6,> 10,> 10,> 10,> 10,> 10,0,0,0,0,0
CCCCNc1ncc2c(-c3ccc(CN4CCN(C)CC4)cc3)cn([C@H]3CC[C@H](O)CC3)c2n1 [UNC2025],88.5,103,97.3,95.5,33.6,98.5,99.7,100,87.1,34.2,88.6,94,92,54.7,5.2,98.4,103,97,60.3,0.3,95.3,101,100,73.3,34.6,2.62,1.75,1.02,1.21,1.16,4.3,5.7,10.5,10.5,7.2
O=C(NCC(=O)N1CCCCC1)Nc1ccc2nnsc2c1 [UNC2327],95.3,102,95.4,105,95.4,95,97.5,90.8,103,99.3,87.1,93.7,103,99.7,98.1,99.9,106,96.3,99.1,99.8,97.5,103,98.7,101,104,> 10,> 10,> 10,> 10,> 10,0,0,0,0,0
c1cc2c3c(c1)c1c(n3CCNC2)CCCC1 [WAY-629],113,90.6,100,90,97.1,110,83.8,104,106,85.7,88.5,95.4,81.1,93,90.9,101,100,95.3,93,95.9,100,99.7,102,98.8,92.4,> 10,> 10,> 10,> 10,> 10,0,0.1,0,0,0
COC(=O)Nc1ccc(-c2nc(N3CCOCC3)c3cnn(C4CCN(Cc5cccnc5)CC4)c3n2)cc1 [WYE-687],93.6,93.9,88,47.8,21.6,100,95.5,79.2,37.2,20.4,97.5,111,92.8,54,17.6,104,97,100,74.2,19,94.2,95.9,89.3,71.3,37.6,0.496,0.271,0.818,1.36,0.925,11.5,14.2,10.1,8.2,6.9
CCCC(=O)Nc1ccc(OCC(O)CNC(C)C)c(C(C)=O)c1 (stereo not given) [acebutolol],102,94.8,93,104,96.1,95.3,104,104,117,88.5,106,88.6,104,88.7,104,90.4,96.3,95.2,98,101,88.2,96.9,93.8,81.9,95.6,> 10,> 10,> 10,> 10,> 10,0,0,0,0,0
CC(=O)c1ccc2c(c1)N(CCCN(C)C)c1ccccc1S2 [acepromazine],104,93.1,99.6,86.4,102,111,102,92.9,96.1,83.5,98.3,96.4,101,91.9,94.7,101,95,100,93.9,95.7,101,101,99.4,99.4,89.2,> 10,> 10,> 10,> 10,> 10,0,0.3,0,0,0
Fc1ccc(-c2cncc(CN3CCN(c4cccc5c4OCCO5)CC3)c2)cc1 [adoprazine],91,102,98.5,109,100,102,105,93.8,94.2,104,104,90.6,92.8,106,91.7,98.2,99.7,92.1,104,95.4,103,98.6,93.9,98.8,105,> 10,> 10,> 10,> 10,> 10,0,0,0,0,0
COc1cccc2c1C(=O)c1c(O)c3c(c(O)c1C2=O)C[C@@](O)(/C(CO)=N/NC(=O)CCCCCN1C(=O)C=CC1=O)C[C@@H]3O[C@H]1C[C@H](N)[C@H](O)[C@H](C)O1 [aldoxorubicin],104,102,93.2,41.4,30.9,93.4,98.1,75.7,45.1,28,97.4,94,50.3,20.3,5.8,102,98.4,94.8,28.5,6,105,101,103,82,41.9,0.367,0.233,0.102,0.513,1.38,11.7,13.2,21.6,14.2,5.8
